Common to all, as to format: cell-based
Assay [1] addresses T1, GR (Homo sapiens, UniProt P04150).
T1 sequence (P04150 1-777): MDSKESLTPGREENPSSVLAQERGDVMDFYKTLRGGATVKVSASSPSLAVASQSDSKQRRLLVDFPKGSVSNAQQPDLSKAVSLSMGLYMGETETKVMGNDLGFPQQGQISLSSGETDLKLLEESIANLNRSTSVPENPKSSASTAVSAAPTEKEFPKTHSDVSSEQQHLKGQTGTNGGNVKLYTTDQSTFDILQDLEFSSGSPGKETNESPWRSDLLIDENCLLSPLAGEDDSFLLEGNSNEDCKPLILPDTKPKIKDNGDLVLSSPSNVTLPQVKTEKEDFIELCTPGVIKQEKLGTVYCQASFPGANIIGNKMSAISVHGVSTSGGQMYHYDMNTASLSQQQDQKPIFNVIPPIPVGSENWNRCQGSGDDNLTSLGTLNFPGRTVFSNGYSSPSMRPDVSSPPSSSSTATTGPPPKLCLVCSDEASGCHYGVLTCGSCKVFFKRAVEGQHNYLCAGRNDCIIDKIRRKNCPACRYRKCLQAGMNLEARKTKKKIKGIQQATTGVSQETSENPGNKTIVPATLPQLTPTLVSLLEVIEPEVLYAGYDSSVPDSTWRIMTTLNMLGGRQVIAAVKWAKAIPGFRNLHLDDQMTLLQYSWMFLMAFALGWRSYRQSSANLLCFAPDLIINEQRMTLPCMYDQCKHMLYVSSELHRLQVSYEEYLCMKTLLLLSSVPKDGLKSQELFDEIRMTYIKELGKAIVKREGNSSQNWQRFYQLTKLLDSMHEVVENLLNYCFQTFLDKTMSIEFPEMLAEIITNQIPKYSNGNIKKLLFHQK
The experiment in a line: Transactivation assay, MMTV promoter luciferase in HeLa cells. The arrangement: endogenous in cells; host or cells: HeLa (ATCC) stably expressing MMP1- or MMTV-promoter luciferase. The settings on record: for EC50: 20 h, geometric mean. As to the method: A HeLa cell line stably expressing luciferase under the control of the mouse mammary tumour virus (MMTV) promoter was generated. When the GR is activated by addition of a GR agonist, it forms a homodimer and binds to the MMTV promoter, t inducing transcription of the luciferase reporter gene. Briefly, cells were incubated with test compounds in culture medium containing charcoal-filtered fetal bovine serum for 20 h 37 °C 5% CO2. Finally, luciferase activity was detected luminometrically after addition of specific substrate to the cells.
(§1) IC50 of test compounds was determined by 10-point titrations in duplicates. IC50 values and other parameters were calculated by sigmoidal curve fitting in Assay Explorer.

Assay [2] addresses T1, GR. The experiment in a line: Transrepression assay, PMA-induced MMP1 promoter luciferase in HeLa cells. Details: endogenous in cells; host or cells: HeLa (ATCC) stably expressing MMP1- or MMTV-promoter luciferase. The settings on record: for EC50: 18 h, geometric mean. As to the method: Assays were adopted from a method reported by Schäcke et al.[39] and HeLa cells were obtained from the American Type Culture Collection (ATCC). Transrepression assay: A HeLa cell line stably expressing luciferase under the control of the human Matrix Metallopeptidase 1 (MMP1) promoter was generated. Upon binding to the GR, […], preventing it from binding the MMP1 promoter, resulting in inhibition of luciferase transcription and activity. Briefly, cells were incubated in culture medium containing charcoal-filtered fetal bovine serum with 5 nM PMA (phorbol 12-myristate 13-acetate) for 18 h with or without test compounds. Then, luciferase activity was detected luminometrically after addition of specific substrate to the cells.
as §1

The subject of assay [3] is LPS-induced TNF-alpha release in PBMCs. Put plainly: TNF-alpha inhibition assay, pig PBMCs. The settings on record: for EC50: geometric mean. The procedure: PMBCs were isolated from human buffy coats or animal whole blood (EDTA-treated). Buffy coats from anonymized healthy adult blood donors were obtained from the Blood Bank of the National University Hospital Copenhagen in accordance with national legislation. Whole blood from mice (obtained from Charles River) was sampled at the animal facility at LEO Pharma and whole blood from pigs was sourced from ScanTox. Test compounds and PBMCs were incubated with 1 µg/ml LPS (Sigma) overnight at 37 °C in HEPES and Glutamax-containing RPMI medium supplemented with either 0.5% human serum albumin (human PBMCs) or 10% fetal bovine serum (mouse and pig PBMCs) and penicillin/streptomycin. TNF-alpha was measured using AlphaLISA (Perkin Elmer).
as §1

Assay [4] has as its system FKBP5 mRNA (GR target engagement). Put plainly: Human skin explant, FKBP5 gene expression. The settings on record: human skin explants; for FKBP5 Emax / FKBP5 Relative ED50 (API concentration in dosing solution): topical, 24 h; for FKBP5 Relative ED50 (API concentration in dosing solution): weighted geometric mean ± SD. The procedure:
NativeSkin models (NS002) were purchased from Genoskin, France. Human skin samples from abdominal reduction surgery were obtained by Genoskin from donors upon written informed consent. Full ethical approval for the study protocol was obtained from the French ethical research committee (Comité de Protection des Personnes), and authorization was given by the French Ministry of Research. The study was conducted according to the Declaration of Helsinki. 8 mm punch biopsies were excised and embedded in a fibrin-based matrix in transwells and a silicone ring was firmly attached to the surface covering the outer edge of the skin biopsy to prevent lateral diffusion of topically applied formulations. Skin models were cultured in a defined hydrocortisone- and serum-free medium provided by Genoskin.
LEO 134310 and reference glucocorticoids were dissolved in propylene carbonate and tested at 4 concentrations in five- or tenfold titrations. Compounds were applied in duplicates or triplicates on the skin surface (0.5 cm^2) in a volume of 2 µL and incubated for 24 h. Vehicle and untreated samples were included for basal level of expression.
RNA was extracted and qPCR was performed using TaqMan gene expression assays (FKBP5-Hs01561006_m1, TSC22D3 (GILZ)-Hs00608272_m1, TXNIP-Hs01006900_g1, ACTB-Hs99999903_m1, PPIA-Hs99999904_m1, GAPDH-Hs99999905_m1). Gene expression of FKBP5,TSC22D3 (GILZ), and TXNIP was normalized to the geometric mean of the reference genes ACTB, PPIA and GAPDH.
Doses were expressed as compound (API) concentrations (µg/mL) in the applied formulations. Relative upregulation of FKBP5 was estimated as − fold to vehicle treated control. Effective doses (Emax and ED50) were determined from a sigmoid Emax model in Phoenix64 version 8.0, Pharsight, Certara. Mean values and standard deviation of Emax and ED50 were calculated by weighing individual experiments based on the intra- and inter-experiment variability.

In assay [5] the target is T1, GR. The experiment in a line: Reversal of GR agonist-mediated suppression of cytokine release from LPS-stimulated PBMC by RU486. The settings on record: 100 nM agonist. The arrangement: endogenous in cells. As to the method:
PMBCs were isolated from human buffy coats obtained in accordance with national legislation and following in-house protocol at Charles River Laboratories (Leiden, Netherlands). Test compounds and PBMCs were incubated with 10 ng/ml LPS (Sigma) overnight at 37°C in HEPES and Glutamax-containing RPMI medium supplemented with 0.5% human serum albumin (human PBMCs) and penicillin/streptomycin. TNF-alpha, IL-1-beta, and IL-6 were measured by MSD multiplex assay (Meso Scale Discovery).Compound concentration in dermis (Figure S4)

The structures appear in SMILES notation.

One may read the Emax as the maximal effect, on the per cent scale that the assay sets. By EC50 is commonly meant the concentration giving half of the maximal effect. A high value points to weaker potency. As to `CCCCC(=O)O[C@]1(C(=O)CO)[C@@H](C)C[C@H]2[C@@H]3CCC4=CC(=O)C=C[C@]4(C)[C@@]3(F)[C@@H](O)C[C@@]21C` [BMV, Betamethasone Valerate], in assay [1] (MMTV promoter, HeLa cells), the maximal response (Emax) turned out to be 120% and the EC50 worked out at 2.6 nM. Further, in assay [2], the maximal response (Emax) was found to be 78% and the EC50 is 0.57 nM. Further, in assay [3] (Sus scrofa, PBMC), the Emax amounted to 99% and the EC50 was determined as 1.5 nM. Moreover, in assay [4], the “FKBP5 Emax” value is recorded as 5.6 ± 4.9 fold to control and the “FKBP5 Relative ED50 (API concentration in dosing solution)” value (shortened to “FKBP5 Relative ED50”) was 9.5 ± 6.9 µg/mL. Also, in assay [5], the “Reversal by GR antagonist RU486 of inhibition of LPS-induced cytokine release” value is given as “could be reversed in a concentration-dependent manner”.

Take `CCC(=O)O[C@]1(C(=O)CCl)[C@@H](C)C[C@H]2[C@@H]3CCC4=CC(=O)C=C[C@]4(C)[C@@]3(F)[C@@H](O)C[C@@]21C` [CP, Clobetasol Propionate]: in assay [1] (MMTV promoter, HeLa cells), the Emax amounted to 110% and a half-maximal effect (EC50) was put at 0.25 nM. In assay [2], the Emax worked out at 90% and the response was half-maximal at 0.064 nM (EC50). Besides, in assay [3] (Sus scrofa, PBMC), the Emax was 95% and the midpoint of the response, the EC50, lay at 0.38 nM. In assay [4], the “FKBP5 Emax” value is listed as 6.9 ± 3.1^NS fold to control and the “FKBP5 Relative ED50” value is listed as 0.52 ± 0.06^NS µg/mL. In addition, the “Reversal by GR antagonist RU486 of inhibition of LPS-induced cytokine release” value in assay [5] was “could be reversed in a concentration-dependent manner”.

With `C[C@H](NC(=O)[C@H]1CCCO1)[C@H](Oc1ccc(C(=O)O[C@H]2CCCN(C(=O)[C@H]3COC(=O)C3)C2)cc1)c1ccc(C2CC2)cc1` [LEO 134310], in assay [1] (MMTV promoter, HeLa cells), the “Transactivation Emax” value came to 95% and the 50% effective concentration (EC50) is 410 nM. The “Transactivation EC50 relative to concentration needed for transrepression” value in assay [1] (higher concentration than needed for transrepression) is given as “more than 300 fold”. In assay [2], the “Transrepression Emax” value was found to be 100% and a half-maximal effect (EC50) was put at 1.2 nM. Besides, in assay [3], the “Inhibition of LPS-induced TNF-alpha release Emax” value turned out to be 96% and the half-maximal effective concentration (EC50) was determined as 3.2 nM. For the same molecule, in assay [4], the “Higher dose needed to achieve similar level of FKBP5 induction as BMV” value was “approximately 30 fold”, the “FKBP5 Emax” value is 7.2 ± 2.7^NS fold to control and the “FKBP5 Relative ED50” value is on record as 270 ± 130 µg/mL. For the same molecule, the “Reversal by GR antagonist RU486 of inhibition of LPS-induced cytokine release” value in assay [5] is “could be reversed in a concentration-dependent manner”.

Values taken from paper PMC8795149, “Characterization of a novel non-steroidal glucocorticoid receptor agonist optimized for topical treatment” (Scientific Reports, 2022).
